According to ChEMBL document CHEMBL3509421, “FDA drug approval package for diclofenac acid (NDA 22-202 CP, Ref ID: 3374276)”:

How the values were obtained:
[1] = clinical; conditions: both, human, plasma, po, 50 mg
[2] = Geometric mean for AUC (0-infinity) of diclofenac following single oral dosing of 18 mg Zorvolex capsule in healthy human; format: ADME, organism-based; design: time infinity, dietary status Fasting, dose 18 mg, dosed compound id 2.46815e+06, dosed compound name Diclofenac, gender Mixed, regimen Single, route oral; conditions: both, plasma, read-out: AUC (0-infinity)
[3] = Geometric mean for AUC (0-t) of diclofenac following single oral dosing of 18 mg Zorvolex capsule in healthy human; format: ADME, organism-based; design: dietary status Fasting, dose 18 mg, dosed compound id 2.46815e+06, dosed compound name Diclofenac, gender Mixed, regimen Single, route oral; conditions: both, plasma
[4] = Geometric mean for AUC (0-infinity) of diclofenac following single oral dosing of 35 mg Zorvolex capsule in healthy human; format: ADME, organism-based; design: time infinity, dietary status Fed, dose 35 mg, dosed compound id 2.46815e+06, dosed compound name Diclofenac, gender Mixed, regimen Single, route oral; conditions: both, plasma, read-out: AUC (0-infinity)
[5] = Mean apparent terminal elimination rate constant value of diclofenac following single oral dosing of 50 mg Cataflam tablet in healthy human; format: ADME, organism-based, Plasma; design: dietary status Fasting, dose 50 mg, dosed compound id 2.46815e+06, dosed compound name Diclofenac potassium, gender Mixed, regimen Single, route oral; conditions: in vivo
[6] = Mean AUC(0-t) of diclofenac potassium following oral dosing of Cataflam 50 mf tablet in healthy human; format: ADME, organism-based; design: dietary status Fasting, dose 50 mg, dosed compound id 2.46815e+06, dosed compound name Diclofenac potassium, gender Mixed, regimen Single, route oral, study doses 50 mg; conditions: both, plasma, 50 mg
[7] = Mean median Tmax value of diclofenac potassium following oral dosing of PRO-513 50 mg sachet in healthy human; format: ADME, organism-based; design: dietary status Fed, dose 50 mg, dosed compound id 2.46815e+06, dosed compound name Diclofenac potassium, gender Mixed, regimen Single, route oral, study doses 50 mg; conditions: both, plasma, read-out: Median Tmax
[8] = Mean AUC (0-infinity) of diclofenac following single oral dosing of 50 mg diclofenac potassium softgel capsule in healthy human; format: ADME, organism-based; design: time infinity, dietary status Fed, dose 50 mg, dosed compound id 2.46815e+06, dosed compound name Diclofenac potassium, gender Mixed, regimen Single, route oral, study doses 25/50 mg; conditions: both, plasma, read-out: AUC (0-infinity)
[9] = clinical; conditions: both, human, plasma, po, 50 mg; remark: listed apart in the source
[10] = Mean AUC (0-infinity) value of diclofenac following single oral dosing of 35 mg Zorvolex capsule in healthy human; format: ADME, organism-based; design: time infinity, dietary status Fasting, dose 35 mg, dosed compound id 2.46815e+06, dosed compound name Diclofenac, gender Mixed, regimen Single, route oral; conditions: both, plasma, read-out: AUC (0-infinity)
[11] = clinical; conditions: both, human, plasma, po, 50 mg; remark: listed apart in the source
[12] = Mean maximum Tmax value of diclofenac potassium following oral dosing of PRO-513 50 mg sachet in healthy human; format: ADME, organism-based; design: dietary status Fed, dose 50 mg, dosed compound id 2.46815e+06, dosed compound name Diclofenac potassium, gender Mixed, regimen Single, route oral, study doses 50 mg; conditions: both, plasma, read-out: Maximum Tmax
[13] = clinical; conditions: both, human, plasma, po, 25 mg
[14] = Mean AUC(0-t) of diclofenac following single oral dosing of 50 mg diclofenac potassium soft gelatin capsule in healthy human; format: ADME, organism-based; design: dietary status Fasting, dose 50 mg, dosed compound id 2.46815e+06, dosed compound name Diclofenac potassium, gender Mixed, regimen Single, route oral, study doses 25/50 mg; conditions: both, plasma
[15] = Mean AUC(0-t) of diclofenac potassium following oral dosing of PRO-513 50 mg sachet in healthy human; format: ADME, organism-based; design: dietary status Fed, dose 50 mg, dosed compound id 2.46815e+06, dosed compound name Diclofenac potassium, gender Mixed, regimen Single, route oral, study doses 50 mg; conditions: both, plasma
[16] = clinical; conditions: both, human, plasma, po, 25 mg; remark: listed apart in the source
Description: Mean terminal elimination half-life of diclofenac following single oral dosing of 25 mg diclofenac potassium softgel capsule in healthy human

[17] = Minimum tmax of diclofenac following single oral dosing of 35 mg Zorvolex capsule in healthy human; format: ADME, organism-based, Plasma; design: dietary status Fasting, dose 35 mg, dosed compound id 2.46815e+06, dosed compound name Diclofenac, gender Mixed, regimen Single, route oral; conditions: in vivo
[18] = (§1) Mean AUC (0-infinity) value of diclofenac following single oral dosing of 50 mg Cataflam tablet in healthy human; format: ADME, organism-based; design: time infinity, dietary status Fasting, dose 50 mg, dosed compound id 2.46815e+06, dosed compound name Diclofenac potassium, gender Mixed, regimen Single, route oral; conditions: both, plasma, read-out: AUC (0-infinity)
[19] = Mean AUC (0-t) of diclofenac following single oral dosing of 50 mg diclofenac potassium softgel capsule in healthy human; format: ADME, organism-based; design: dietary status Fed, dose 50 mg, dosed compound id 2.46815e+06, dosed compound name Diclofenac potassium, gender Mixed, regimen Single, route oral, study doses 25/50 mg; conditions: both, plasma
[20] = Mean Cmax value of diclofenac following single oral dosing of 35 mg Zorvolex capsule in healthy human; format: ADME, organism-based; design: dietary status Fed, dose 35 mg, dosed compound id 2.46815e+06, dosed compound name Diclofenac, gender Mixed, regimen Single, route oral; conditions: both, plasma
[21] = as §1; format: ADME, organism-based; design: time infinity, dietary status Fed, dose 50 mg, dosed compound id 2.46815e+06, dosed compound name Diclofenac potassium, gender Mixed, regimen Single, route oral; conditions: both, plasma, read-out: AUC (0-infinity)
[22] = (§2) Mean minimum Tmax value of diclofenac potassium following oral dosing of PRO-513 50 mg sachet in healthy human; format: ADME, organism-based, Plasma; design: dietary status Fasting, dose 50 mg, dosed compound id 2.46815e+06, dosed compound name Diclofenac potassium, gender Mixed, regimen Single, route oral, study doses 50 mg; conditions: in vivo
[23] = Mean Cmax of diclofenac following single oral dosing of 25 mg diclofenac potassium softgel capsule in healthy human; format: ADME, organism-based; design: dietary status Fasting, dose 25 mg, dosed compound id 2.46815e+06, dosed compound name Diclofenac potassium, gender Mixed, regimen Single, route oral, study doses 25/50 mg; conditions: both, plasma
[24] = Minimum tmax of diclofenac following single oral dosing of 50 mg Cataflam tablet in healthy human; format: ADME, organism-based, Plasma; design: dietary status Fasting, dose 50 mg, dosed compound id 2.46815e+06, dosed compound name Diclofenac potassium, gender Mixed, regimen Single, route oral; conditions: in vivo
[25] = Mean AUC (0-t) of diclofenac following single oral dosing of 25 mg diclofenac potassium softgel capsule in healthy human; format: ADME, organism-based; design: dietary status Fed, dose 25 mg, dosed compound id 2.46815e+06, dosed compound name Diclofenac potassium, gender Mixed, regimen Single, route oral, study doses 25/50 mg; conditions: both, plasma
[26] = as §2; format: ADME, organism-based, Plasma; design: dietary status Fed, dose 50 mg, dosed compound id 2.46815e+06, dosed compound name Diclofenac potassium, gender Mixed, regimen Single, route oral, study doses 50 mg; conditions: in vivo
[27] = Mean AUC (0-t) value of diclofenac following single oral dosing of 35 mg Zorvolex capsule in healthy human; format: ADME, organism-based; design: dietary status Fed, dose 35 mg, dosed compound id 2.46815e+06, dosed compound name Diclofenac, gender Mixed, regimen Single, route oral; conditions: both, plasma
[28] = Mean AUC(0-t) of diclofenac following single oral dosing of 50 mg Cataflam in healthy human; format: ADME, organism-based; design: dietary status Fasting, dose 50 mg, dosed compound id 2.46815e+06, dosed compound name Diclofenac potassium, gender Mixed, regimen Single, route oral, study doses 50 mg; conditions: both, plasma
[29] = Median tmax of diclofenac following single oral dosing of 35 mg Zorvolex capsule in healthy human; format: ADME, organism-based; design: dietary status Fed, dose 35 mg, dosed compound id 2.46815e+06, dosed compound name Diclofenac, gender Mixed, regimen Single, route oral; conditions: both, plasma, read-out: Median Tmax
[30] = Mean apparent terminal elimination rate constant value of diclofenac following single oral dosing of 18 mg Zorvolex capsule in healthy human; format: ADME, organism-based, Plasma; design: dietary status Fasting, dose 18 mg, dosed compound id 2.46815e+06, dosed compound name Diclofenac, gender Mixed, regimen Single, route oral; conditions: in vivo
[31] = Geometric mean for AUC (0-infinity) of diclofenac following single oral dosing of 50 mg Cataflam tablet in healthy human; format: ADME, organism-based, Plasma; design: time infinity, dietary status Fasting, dose 50 mg, dosed compound id 2.46815e+06, dosed compound name Diclofenac potassium, gender Mixed, regimen Single, route oral; conditions: in vivo

## O=C(O)Cc1ccccc1Nc1c(Cl)cccc1Cl [DICLOFENAC]
[1]
  half-life: 2.27 h
[2]
  AUC(0-inf): 487 ng·h/mL
[3]
  AUC(0-t): 478 ng·h/mL
[4]
  AUC(0-inf): 852 ng·h/mL
[5]
  lambda-z: 0.333 h⁻¹
[6]
  AUC(0-t): 1080 ng·h/mL
[7]
  Tmax: 0.17 h
[8]
  AUC(0-inf): 1460 ng·h/mL
[9]
  half-life: 1.35 h
[10]
  AUC(0-inf): 1000 ng·h/mL
[11]
  half-life: 2.27 h
[12]
  Tmax: 4 h
[13]
  half-life: 1.35 h
[14]
  AUC(0-t): 1200 ng·h/mL
[15]
  AUC(0-t): 1050 ng·h/mL
[16]
  half-life: 1.04 h
[17]
  Minimum Tmax: 0.47 h
[18]
  AUC(0-inf): 1330 ng·h/mL
[19]
  AUC(0-t): 1420 ng·h/mL
[20]
  Cmax: 355 ng/mL
[21]
  AUC(0-inf): 1200 ng·h/mL
[22]
  Minimum Tmax: 0.17 h
[23]
  Cmax: 1160 ng/mL
[24]
  Minimum Tmax: 0.25 h
[25]
  AUC(0-t): 680 ng·h/mL
[26]
  Minimum Tmax: 4.8 min
[27]
  AUC(0-t): 861 ng·h/mL
[28]
  AUC(0-t): 1130 ng·h/mL
[29]
  Tmax: 3.32 h
[30]
  lambda-z: 0.399 h⁻¹
[31]
  AUC (0-infinity): 1301.961 ng·h/mL
